Assay [1] can be described thus: cytotoxicity toward DRD oncogenic fibroblasts, dose response, cell-based, non-viral oncogenic, luminescence (AID 1934). The class given is functional. The note with it: Homo sapiens.
Assay [2] deals with BJ. The experiment in a line: cytotoxicity toward BJ-TERT-LT-ST fibroblasts, dose response, cell-based, RAS-independent, luminescence (AID 1935).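 Further: BJ fibroblasts immortalized with TERT plus LT and ST oncogenes.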 The class given is functional. Conditions: Homo sapiens.
Assay [3] relates to BJ. The experiment in a line: cytotoxicity toward BJ-TERT fibroblasts, dose response, cell-based, RAS-independent, luminescence (AID 1933). The class given is functional. Conditions: Homo sapiens.
Assay [4] can be described thus: Fluorescence-based cell-based high throughput dose response assay for inhibitors of the interaction of nucleotide-binding oligomerization domain containing 2 (NOD2) and the receptor-interacting serine-threonine kinase 2 (RIPK2). The note with it: Homo sapiens. The class given is functional.
For assay [5], the target named is T1, Microphthalmia-associated transcription factor (Homo sapiens, UniProt O75030).
T1 sequence (O75030 whole entry): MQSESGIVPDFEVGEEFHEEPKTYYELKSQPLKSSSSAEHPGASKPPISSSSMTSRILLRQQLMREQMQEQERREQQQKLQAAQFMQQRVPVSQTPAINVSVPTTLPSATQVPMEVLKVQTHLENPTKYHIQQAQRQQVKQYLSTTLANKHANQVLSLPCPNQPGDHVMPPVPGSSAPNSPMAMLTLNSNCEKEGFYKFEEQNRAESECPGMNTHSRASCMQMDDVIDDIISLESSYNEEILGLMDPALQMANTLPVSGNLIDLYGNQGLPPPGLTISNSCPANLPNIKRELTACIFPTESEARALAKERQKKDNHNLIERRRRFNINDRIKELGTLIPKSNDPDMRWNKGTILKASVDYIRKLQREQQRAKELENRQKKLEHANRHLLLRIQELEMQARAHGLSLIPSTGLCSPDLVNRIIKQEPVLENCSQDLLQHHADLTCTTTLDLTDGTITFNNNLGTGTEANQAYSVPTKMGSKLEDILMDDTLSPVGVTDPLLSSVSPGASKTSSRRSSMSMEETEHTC
Kind of assay: TRPM1 promoter luciferase signal decrease, dose response, MITF inhibitor project, cell-based, SK-MEL-5, cherry-picked, set 3 (AID 493073).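 Further: SK-MEL-5 melanoma cells with luciferase driven by the MITF target TRPM1 promoter.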 It counts as functional.

In assay [6] the test system is BJ. The experiment in a line: cells. It counts as functional, cell-based. The note with it: Homo sapiens.
Assay [7] addresses T2, Lytic switch protein BZLF1 (Epstein-Barr virus (strain B95-8) (HHV-4) (Human herpesvirus 4), UniProt P03206).
T2 sequence (P03206 whole entry): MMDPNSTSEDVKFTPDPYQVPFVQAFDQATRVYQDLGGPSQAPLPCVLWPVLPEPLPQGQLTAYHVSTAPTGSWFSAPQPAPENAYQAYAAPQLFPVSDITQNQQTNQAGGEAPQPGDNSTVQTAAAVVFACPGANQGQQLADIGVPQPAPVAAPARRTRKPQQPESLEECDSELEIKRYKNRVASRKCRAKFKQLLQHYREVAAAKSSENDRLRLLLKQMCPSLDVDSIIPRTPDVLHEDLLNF
The experiment in a line: EBV ZTA inhibitors, dose response, counter-screen for EBNA-1 inhibitor project, biochemical, fluorescence polarization, Epstein-Barr virus, 1536-well (AID 2377).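 Further: fluorescence polarization of Cy5-labelled ZRE DNA probe bound by purified Zta.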 Details: species or system human gammaherpesvirus 4.

The target in assay [8] is T3, Epstein-Barr nuclear antigen 1 (Epstein-Barr virus (strain B95-8) (HHV-4) (Human herpesvirus 4), UniProt P03211).
T3 sequence (P03211 whole entry): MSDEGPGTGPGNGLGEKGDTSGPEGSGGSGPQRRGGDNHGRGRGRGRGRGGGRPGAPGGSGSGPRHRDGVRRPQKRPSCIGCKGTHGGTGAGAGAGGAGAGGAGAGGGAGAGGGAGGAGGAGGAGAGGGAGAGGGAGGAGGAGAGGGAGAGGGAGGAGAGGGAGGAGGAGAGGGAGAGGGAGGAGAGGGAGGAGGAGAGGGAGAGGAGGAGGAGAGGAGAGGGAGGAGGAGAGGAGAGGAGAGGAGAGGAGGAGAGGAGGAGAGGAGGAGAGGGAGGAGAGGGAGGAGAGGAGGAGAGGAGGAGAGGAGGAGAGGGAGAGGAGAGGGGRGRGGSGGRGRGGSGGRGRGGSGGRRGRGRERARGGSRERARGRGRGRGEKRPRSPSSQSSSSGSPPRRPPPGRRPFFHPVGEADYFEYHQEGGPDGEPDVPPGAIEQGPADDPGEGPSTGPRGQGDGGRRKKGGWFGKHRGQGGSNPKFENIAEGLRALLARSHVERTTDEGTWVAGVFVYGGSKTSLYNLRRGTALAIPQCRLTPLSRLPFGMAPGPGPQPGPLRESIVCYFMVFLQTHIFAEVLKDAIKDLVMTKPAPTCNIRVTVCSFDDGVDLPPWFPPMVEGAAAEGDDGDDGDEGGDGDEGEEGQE
Kind of assay: EBNA-1 inhibitors, dose response, biochemical, fluorescence polarization, 1536-well (AID 2381).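 Further: fluorescence polarization of a Cy5 DNA probe bound by EBNA-1 protein.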 Also noted: species or system human gammaherpesvirus 4.

The target in assay [9] is T4, DNA repair protein RAD52 homolog (Homo sapiens, UniProt P43351).
T4 sequence (P43351 whole entry): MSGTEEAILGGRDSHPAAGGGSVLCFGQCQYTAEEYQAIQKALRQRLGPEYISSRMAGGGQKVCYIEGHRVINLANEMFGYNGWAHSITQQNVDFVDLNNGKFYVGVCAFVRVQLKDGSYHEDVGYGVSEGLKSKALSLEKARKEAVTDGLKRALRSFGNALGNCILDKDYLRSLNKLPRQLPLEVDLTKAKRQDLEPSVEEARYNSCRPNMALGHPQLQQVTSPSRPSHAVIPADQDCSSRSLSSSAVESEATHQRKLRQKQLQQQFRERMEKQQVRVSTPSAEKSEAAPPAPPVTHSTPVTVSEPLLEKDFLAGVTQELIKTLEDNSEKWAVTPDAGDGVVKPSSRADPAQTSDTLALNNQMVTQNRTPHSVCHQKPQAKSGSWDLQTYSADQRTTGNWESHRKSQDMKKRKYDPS
The class given is functional, biochemical.

Another assay concerns the target T5, Estrogen receptor (Homo sapiens, UniProt P03372).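 Further: potency for inhibiting coactivator peptide recruitment to the receptor.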
T5 sequence (P03372 whole entry): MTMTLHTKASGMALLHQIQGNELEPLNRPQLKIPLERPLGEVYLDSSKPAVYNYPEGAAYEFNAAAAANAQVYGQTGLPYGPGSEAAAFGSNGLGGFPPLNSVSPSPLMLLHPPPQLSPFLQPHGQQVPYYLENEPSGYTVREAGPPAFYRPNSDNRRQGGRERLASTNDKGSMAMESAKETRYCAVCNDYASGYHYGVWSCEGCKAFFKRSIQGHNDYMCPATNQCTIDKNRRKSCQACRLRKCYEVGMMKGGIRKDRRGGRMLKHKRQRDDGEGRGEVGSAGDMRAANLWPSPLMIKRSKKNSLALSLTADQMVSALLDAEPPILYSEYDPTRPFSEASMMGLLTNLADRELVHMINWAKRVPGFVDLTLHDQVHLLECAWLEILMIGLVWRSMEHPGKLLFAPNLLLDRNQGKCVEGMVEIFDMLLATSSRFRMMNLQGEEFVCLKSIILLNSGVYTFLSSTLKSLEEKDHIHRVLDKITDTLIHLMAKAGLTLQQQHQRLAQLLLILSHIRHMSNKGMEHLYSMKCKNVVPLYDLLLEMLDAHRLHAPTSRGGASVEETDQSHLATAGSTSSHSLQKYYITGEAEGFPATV

In assay [10] the target is T6, Alkaline phosphatase, tissue-nonspecific isozyme (Homo sapiens, UniProt P05186).
T6 sequence (P05186 whole entry): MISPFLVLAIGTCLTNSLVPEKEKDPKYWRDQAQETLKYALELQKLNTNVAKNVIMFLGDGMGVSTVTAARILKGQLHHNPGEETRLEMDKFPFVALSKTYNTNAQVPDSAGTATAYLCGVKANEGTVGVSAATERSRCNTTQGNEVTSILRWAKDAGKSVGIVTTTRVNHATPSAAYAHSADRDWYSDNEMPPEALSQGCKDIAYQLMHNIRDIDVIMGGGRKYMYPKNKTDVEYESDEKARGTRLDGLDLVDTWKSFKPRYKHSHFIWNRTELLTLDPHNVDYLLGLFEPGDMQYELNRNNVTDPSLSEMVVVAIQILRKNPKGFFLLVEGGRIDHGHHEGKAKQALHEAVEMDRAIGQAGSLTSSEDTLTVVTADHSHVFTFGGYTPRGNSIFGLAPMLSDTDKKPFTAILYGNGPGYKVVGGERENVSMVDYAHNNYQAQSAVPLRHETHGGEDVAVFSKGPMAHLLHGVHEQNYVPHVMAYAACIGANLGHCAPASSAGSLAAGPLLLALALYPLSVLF
Kind of assay: human TNAP enzyme inhibitors, SAR follow-up, biochemical, luminescent, dose response (AID 1056).

The target of assay [11] is Glyceraldehyde-3-phosphate dehydrogenase (Homo sapiens, UniProt P04406).
Assay [12] is described as follows: A Cell Based Secondary Assay To Explore Cytotoxicity of Compounds that Sensitize Mycobacterium Tuberculosis to Beta-Lactam Antibiotics. It counts as functional.
A short description of assay [13]: HepG2 cell cytotoxicity, dose response, cytotoxicity control, cherry-picked samples (AID 1159577). It counts as functional, cell-based.
Assay [14] can be described thus: P. falciparum Dd2 growth inhibitors, dose response, SYBR Green, cherry-picked samples (AID 1159567). It counts as functional, cell-based.
Assay [15] is described as follows: cytotoxicity toward NIH3T3 fibroblasts, dose response, counter-screen, cell-based, ATP luminescence, mouse fibroblasts (AID 2010).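 Further: cells exposed to compound for about 90 hours before reading.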 It counts as functional.
Assay [16] in a line: inhibitors of intracellular T. cruzi replication, confirmation, NIH3T3 host cells, beta-gal luminescence (AID 2044).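 Further: intracellular parasites grown in NIH/3T3 mouse fibroblasts as host cells; luminescent beta-galactosidase reporter signal from transgenic T. cruzi replicating inside host cells; inhibitors lower the luminescence signal.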 It counts as functional, cell-based.
Assay [17] has as its target Induced myeloid leukemia cell differentiation protein Mcl-1 (Homo sapiens, UniProt Q07820). It counts as functional.
Assay [18] concerns the target T7, DNA repair and recombination protein RAD54-like (Homo sapiens, UniProt Q92698).
T7 sequence (Q92698 whole entry): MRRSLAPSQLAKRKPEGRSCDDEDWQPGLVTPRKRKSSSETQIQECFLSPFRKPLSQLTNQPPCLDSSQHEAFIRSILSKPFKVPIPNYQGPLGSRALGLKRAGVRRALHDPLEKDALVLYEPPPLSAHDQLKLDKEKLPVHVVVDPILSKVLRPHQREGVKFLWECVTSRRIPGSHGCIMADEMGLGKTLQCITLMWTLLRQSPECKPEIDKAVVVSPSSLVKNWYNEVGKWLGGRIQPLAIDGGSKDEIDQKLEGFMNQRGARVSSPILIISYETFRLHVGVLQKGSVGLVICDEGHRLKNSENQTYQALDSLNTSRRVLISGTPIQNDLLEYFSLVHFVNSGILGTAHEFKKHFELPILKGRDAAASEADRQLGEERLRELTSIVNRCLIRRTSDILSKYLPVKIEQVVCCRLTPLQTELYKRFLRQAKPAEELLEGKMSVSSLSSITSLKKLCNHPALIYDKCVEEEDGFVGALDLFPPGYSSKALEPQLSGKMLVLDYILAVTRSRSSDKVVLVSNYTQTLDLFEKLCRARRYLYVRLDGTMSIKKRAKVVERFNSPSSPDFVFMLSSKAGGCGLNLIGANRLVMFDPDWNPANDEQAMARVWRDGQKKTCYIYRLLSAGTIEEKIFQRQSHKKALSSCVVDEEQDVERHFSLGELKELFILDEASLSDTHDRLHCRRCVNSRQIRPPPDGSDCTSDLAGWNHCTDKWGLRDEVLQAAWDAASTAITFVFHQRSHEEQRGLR
Kind of assay: inhibitors of human RAD54 branch migration, confirmation, biochemical, fluorescence, cherry-picked samples, dose series (AID 651657). The class given is functional.

In assay [19] the target is Disintegrin and metalloproteinase domain-containing protein 17 (Homo sapiens, UniProt P78536). The experiment in a line: ADAM17 protease inhibitors, dose response, counter-screen for ADAM10 exosite inhibitor project, biochemical, quenched FRET substrate (AID 743253).
Assay [20] is described as follows: ADAM10 inhibitors, peptide cleavage, dose response, biochemical, QFRET (AID 743254).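 Further: ADAM10 enzyme with the DM2 quenched FRET peptide as substrate; EDANS fluorescence gain as the protease cuts the substrate; inhibitor potency against ADAM10 proteolytic activity.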

The results in this text go back to ChEMBL document CHEMBL1201862, “PubChem BioAssay data set” (2004).

Calls of active or inactive are those of the source.

Disintegrin and metalloproteinase domain-containing protein 17, sequence (P78536 whole entry, the tested form may be a part): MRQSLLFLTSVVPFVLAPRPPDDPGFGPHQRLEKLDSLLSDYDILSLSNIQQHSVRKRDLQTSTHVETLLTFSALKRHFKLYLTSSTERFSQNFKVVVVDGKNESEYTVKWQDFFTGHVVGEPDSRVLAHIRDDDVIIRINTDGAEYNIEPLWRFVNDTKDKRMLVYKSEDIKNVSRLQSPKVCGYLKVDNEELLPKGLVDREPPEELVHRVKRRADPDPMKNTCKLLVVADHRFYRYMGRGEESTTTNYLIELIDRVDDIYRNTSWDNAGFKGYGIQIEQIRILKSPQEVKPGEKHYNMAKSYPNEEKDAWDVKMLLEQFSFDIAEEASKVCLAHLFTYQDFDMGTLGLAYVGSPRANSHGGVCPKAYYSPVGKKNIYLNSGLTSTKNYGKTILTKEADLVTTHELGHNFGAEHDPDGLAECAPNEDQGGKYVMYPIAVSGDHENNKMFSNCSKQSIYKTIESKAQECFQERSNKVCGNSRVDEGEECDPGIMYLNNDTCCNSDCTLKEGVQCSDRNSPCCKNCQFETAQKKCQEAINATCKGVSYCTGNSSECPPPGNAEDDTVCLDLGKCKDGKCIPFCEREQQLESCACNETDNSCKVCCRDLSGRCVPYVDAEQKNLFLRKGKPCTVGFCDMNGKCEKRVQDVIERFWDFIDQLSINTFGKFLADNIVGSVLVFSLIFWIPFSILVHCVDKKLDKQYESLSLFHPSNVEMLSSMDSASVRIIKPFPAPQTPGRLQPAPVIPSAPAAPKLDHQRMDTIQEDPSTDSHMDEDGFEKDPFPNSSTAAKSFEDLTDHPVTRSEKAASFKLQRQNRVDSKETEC
Induced myeloid leukemia cell differentiation protein Mcl-1, sequence (Q07820 whole entry): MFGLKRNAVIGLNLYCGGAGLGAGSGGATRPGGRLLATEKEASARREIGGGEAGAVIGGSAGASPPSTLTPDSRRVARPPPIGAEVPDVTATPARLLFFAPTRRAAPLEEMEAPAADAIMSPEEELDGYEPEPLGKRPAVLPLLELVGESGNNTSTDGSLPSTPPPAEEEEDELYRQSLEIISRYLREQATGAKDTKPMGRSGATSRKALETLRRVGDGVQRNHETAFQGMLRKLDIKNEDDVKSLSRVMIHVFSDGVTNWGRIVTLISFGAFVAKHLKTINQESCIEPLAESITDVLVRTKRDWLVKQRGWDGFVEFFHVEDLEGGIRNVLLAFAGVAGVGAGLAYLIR
Glyceraldehyde-3-phosphate dehydrogenase, sequence (P04406 whole entry): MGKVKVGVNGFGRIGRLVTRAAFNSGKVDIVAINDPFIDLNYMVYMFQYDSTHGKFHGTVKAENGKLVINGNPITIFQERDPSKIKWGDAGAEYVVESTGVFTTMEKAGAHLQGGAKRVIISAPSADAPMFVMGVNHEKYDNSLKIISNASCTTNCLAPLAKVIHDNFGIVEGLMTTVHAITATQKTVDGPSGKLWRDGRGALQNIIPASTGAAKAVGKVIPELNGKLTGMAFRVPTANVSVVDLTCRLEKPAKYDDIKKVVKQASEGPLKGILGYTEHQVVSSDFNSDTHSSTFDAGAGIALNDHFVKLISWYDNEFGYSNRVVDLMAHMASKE

A word on the EC50: it is the concentration needed to bring the measured effect to its halfway point. By IC50 is commonly meant the concentration that inhibits the measured activity by half. Usually AC50 stands for the concentration at which the activity in the assay is half-maximal. On to `CNC(=O)COC(=O)c1ccccc1C(=O)c1ccc(Cl)c([N+](=O)[O-])c1`, for which the EC50 in assay [1] is 10 µM (inconclusive); in the assay with BJ [2] it was 2.42 µM (inconclusive); in the assay with BJ [3] it was 4.68 µM (active); with BJ [6], 5.44 µM (inconclusive). The IC50 in assay [4] is 2.58 µM (active). In addition, in assay [5], the AC50 is 9.77 µM (active).
`CCOc1cccc(NC(=O)Cn2nc(-c3ccc4c(c3)OCCO4)ccc2=O)c1`: the IC50 in assay [7] was > 111 µM (not active); in assay [8], 13.7 µM (not active).
For `Cc1[nH]c2ccc(O)cc2c1CCN`, the AC50 in [9] is 4.06 µM (active).
As for `Nc1nc(N2C(=O)C3CC=CCC3C2=O)nn1-c1ccccc1` (configuration not stated), the IC50 on Estrogen receptor is > 50 µM (not active); in [10] it was > 100 µM (inactive); in assay [11], > 100 µM (not active).
What is called CC50 is the concentration giving 50% cytotoxicity. Take `COc1ccc(-c2c/c(=N\c3ccc(C)cc3)c3ccccc3o2)cc1`: the CC50 in assay [12] was > 40 µM (active).
On to `COc1ccc2c3c([nH]c2c1)[C@H](CO)N(CC1CC1)CC31CCN(S(=O)(=O)c2cccc(F)c2)CC1`, for which the AC50 in assay [13] is > 39 µM (inactive); in [14], 4 µM (active).
Consider `Cc1ccc2[nH]c(O)c(N=Nc3nc4ccccc4s3)c2c1`, for which the CC50 in assay [12] is 39.6 µM (active). The values for the EC50 in assay [15] and in assay [16] were > 60 µM (not active) and 3.38 µM (active), respectively. The IC50 in assay [17] is 2.11 µM (active).
On to `CCN(CC)CCN(C(=O)C1=COCCO1)c1nc2c(OC)ccc(OC)c2s1`, for which the AC50 in assay [9] was 8.89 µM (active); in assay [18], 23.5 µM (active).
For `COc1ccc(CN([C@H](CO)CC(C)C)S(=O)(=O)N(Cc2ccccc2)[C@H](CO)CC(C)C)cc1`, the IC50 was > 69.5 µM (inactive) in assay [19] and 5.93 µM (active) in [20].
`CC(=O)Nc1ccc(NC(=O)C(C)OC(=O)c2oc3ccccc3c2C)cc1` (configuration not stated): the IC50 in assay [7] is > 111 µM (not active); in [8], 9.16 µM (active).
`COc1ccc2c(c1)c(CC(=O)Nc1ccc(C(C)=O)cc1)c(C)n2C(=O)c1ccc(Cl)cc1`: the IC50 in assay [19] and in assay [20] was > 69.5 µM (inactive) in each case.
